Measurements from patent US20250271426A1, “REDUCTION OF BITTER TASTE OF ACTIVE PHARMACEUTICAL INGREDIENTS AND RELATED ASSAYS AND SCREENING METHODS” (Firmenich Incorporated, priority 2022, published 2025).

Legend:
Assay in all cases: FLIPR calcium assay, cells with promiscuous G protein transfected with bitter receptor cDNA
Format in all cases: cell-based
Conditions in all cases: responsive if cellular response of >10% over baseline, Fluo4-AM
[1] = biological target: T1, T2R receptor SEQ ID NO: 3 (S3) (Homo sapiens, UniProt Q9NYW0, T156M)
T1 construct: expressed in transfected cells; host or cells: cells expressing a promiscuous G protein (e.g., G16g44)
T1 sequence (Q9NYW0 1-307 T156M): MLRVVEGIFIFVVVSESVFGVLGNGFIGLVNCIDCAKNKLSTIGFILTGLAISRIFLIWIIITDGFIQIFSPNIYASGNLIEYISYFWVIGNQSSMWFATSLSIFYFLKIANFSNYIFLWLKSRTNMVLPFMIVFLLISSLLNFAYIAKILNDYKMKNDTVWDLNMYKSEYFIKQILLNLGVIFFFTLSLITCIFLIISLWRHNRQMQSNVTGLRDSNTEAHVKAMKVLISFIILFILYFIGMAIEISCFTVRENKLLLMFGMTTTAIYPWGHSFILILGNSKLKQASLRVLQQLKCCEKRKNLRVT
In short: (§1)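 Fluo4-AM calcium imaging on FLIPR, agonist added during recording. Host: G16g44 cells, one receptor cDNA per transfection, 28 h culture. Activity cutoff >10% over baseline.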

[2] = biological target: T2, T2R receptor SEQ ID NO: 1 (S1) (Homo sapiens, UniProt Q9NYW7)
T2 construct: expressed in transfected cells; host or cells: cells expressing a promiscuous G protein (e.g., G16g44)
T2 sequence (Q9NYW7 1-299): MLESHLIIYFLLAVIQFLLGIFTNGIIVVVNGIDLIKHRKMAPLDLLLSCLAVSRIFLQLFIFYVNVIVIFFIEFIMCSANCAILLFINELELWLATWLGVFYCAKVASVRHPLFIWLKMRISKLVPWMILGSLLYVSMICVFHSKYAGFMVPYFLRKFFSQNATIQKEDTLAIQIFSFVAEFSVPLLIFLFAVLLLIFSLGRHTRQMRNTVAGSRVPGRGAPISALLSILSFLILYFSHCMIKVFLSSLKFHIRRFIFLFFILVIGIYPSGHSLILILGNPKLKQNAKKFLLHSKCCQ
In short: as §1

[3] = biological target: T3, T2R receptor SEQ ID NO: 4 (S4) (Homo sapiens, UniProt Q9NYV8)
T3 construct: expressed in transfected cells; host or cells: cells expressing a promiscuous G protein (e.g., G16g44)
T3 sequence (Q9NYV8 1-317): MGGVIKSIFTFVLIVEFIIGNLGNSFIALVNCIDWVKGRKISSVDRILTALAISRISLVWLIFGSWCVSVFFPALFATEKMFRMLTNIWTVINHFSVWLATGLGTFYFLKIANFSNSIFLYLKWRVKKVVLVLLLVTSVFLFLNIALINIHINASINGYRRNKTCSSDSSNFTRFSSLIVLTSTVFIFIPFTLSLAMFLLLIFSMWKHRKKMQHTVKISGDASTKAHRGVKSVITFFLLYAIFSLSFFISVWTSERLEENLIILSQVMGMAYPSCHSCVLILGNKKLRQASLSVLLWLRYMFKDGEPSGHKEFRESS
In short: as §1

[4] = biological target: T4, T2R receptor SEQ ID NO: 2 (S2) (Homo sapiens, UniProt Q9NYW2)
T4 construct: expressed in transfected cells; host or cells: cells expressing a promiscuous G protein (e.g., G16g44)
T4 sequence (Q9NYW2 1-309): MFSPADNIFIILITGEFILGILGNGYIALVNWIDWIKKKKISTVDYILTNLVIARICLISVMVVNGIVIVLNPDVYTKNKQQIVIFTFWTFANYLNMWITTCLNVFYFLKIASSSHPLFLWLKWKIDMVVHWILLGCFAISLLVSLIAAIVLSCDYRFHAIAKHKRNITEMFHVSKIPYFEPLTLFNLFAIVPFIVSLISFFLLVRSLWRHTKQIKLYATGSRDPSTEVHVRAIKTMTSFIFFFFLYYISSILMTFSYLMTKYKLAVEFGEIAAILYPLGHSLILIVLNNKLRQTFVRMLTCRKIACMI
In short: as §1

[5] = biological target: T5, T2R receptor SEQ ID NO: 6 (S6) (Homo sapiens, UniProt P59540)
T5 construct: expressed in transfected cells; host or cells: cells expressing a promiscuous G protein (e.g., G16g44)
T5 sequence (P59540 1-309): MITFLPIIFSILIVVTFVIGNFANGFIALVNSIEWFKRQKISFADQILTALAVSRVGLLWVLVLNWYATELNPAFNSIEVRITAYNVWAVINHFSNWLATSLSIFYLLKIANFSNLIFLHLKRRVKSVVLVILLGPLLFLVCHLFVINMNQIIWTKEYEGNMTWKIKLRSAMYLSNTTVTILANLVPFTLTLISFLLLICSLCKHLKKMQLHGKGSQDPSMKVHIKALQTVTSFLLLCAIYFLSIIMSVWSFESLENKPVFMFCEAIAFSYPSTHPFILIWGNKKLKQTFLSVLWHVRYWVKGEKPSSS
In short: as §1

[6] = biological target: T6, T2R receptor SEQ ID NO: 5 (S5) (Homo sapiens, UniProt P59534)
T6 construct: expressed in transfected cells; host or cells: cells expressing a promiscuous G protein (e.g., G16g44)
T6 sequence (P59534 18-338): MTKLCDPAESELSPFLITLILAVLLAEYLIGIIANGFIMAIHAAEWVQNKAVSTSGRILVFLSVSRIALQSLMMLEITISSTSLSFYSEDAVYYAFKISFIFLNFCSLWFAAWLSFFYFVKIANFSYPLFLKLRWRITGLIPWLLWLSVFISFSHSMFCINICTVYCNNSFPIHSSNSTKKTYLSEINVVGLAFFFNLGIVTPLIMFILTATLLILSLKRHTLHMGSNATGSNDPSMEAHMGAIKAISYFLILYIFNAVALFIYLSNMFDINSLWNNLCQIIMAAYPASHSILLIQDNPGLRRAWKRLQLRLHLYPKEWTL
In short: as §1

| Compound | S3 positive response of T2R receptor to API [1] | S1 positive response of T2R receptor to API [2] | S4 positive response of T2R receptor to API [3] | S2 positive response of T2R receptor to API [4] | S6 positive response of T2R receptor to API [5] | S5 positive response of T2R receptor to API [6] |
| --- | --- | --- | --- | --- | --- | --- |
| CN(C)CCC=C1c2ccccc2COc2ccccc21 [Doxepin] | + (a “+” to indicate whether a particular T2R receptor showed a positive response to a particular API) | + (a “+” to indicate whether a particular T2R receptor showed a positive response to a particular API) | + (a “+” to indicate whether a particular T2R receptor showed a positive response to a particular API) | + (a “+” to indicate whether a particular T2R receptor showed a positive response to a particular API) | + (a “+” to indicate whether a particular T2R receptor showed a positive response to a particular API) | + (a “+” to indicate whether a particular T2R receptor showed a positive response to a particular API) |
| O=C(O)COCCN1CCN(C(c2ccccc2)c2ccc(Cl)cc2)CC1 (stereo not drawn) [Cetirizine] | + (a “+” to indicate whether a particular T2R receptor showed a positive response to a particular API) | + (a “+” to indicate whether a particular T2R receptor showed a positive response to a particular API) | + (a “+” to indicate whether a particular T2R receptor showed a positive response to a particular API) | + (a “+” to indicate whether a particular T2R receptor showed a positive response to a particular API) | + (a “+” to indicate whether a particular T2R receptor showed a positive response to a particular API) | + (a “+” to indicate whether a particular T2R receptor showed a positive response to a particular API) |
| CN(C)CCOC(c1ccccc1)c1ccccc1 [Diphenhydramine] | + (a “+” to indicate whether a particular T2R receptor showed a positive response to a particular API) | + (a “+” to indicate whether a particular T2R receptor showed a positive response to a particular API) | + (a “+” to indicate whether a particular T2R receptor showed a positive response to a particular API) | + (a “+” to indicate whether a particular T2R receptor showed a positive response to a particular API) | + (a “+” to indicate whether a particular T2R receptor showed a positive response to a particular API) | + (a “+” to indicate whether a particular T2R receptor showed a positive response to a particular API) |
| CCN(CC)CCCC(C)Nc1ccnc2cc(Cl)ccc12 (stereo not drawn) [Chloroquine] | + (a “+” to indicate whether a particular T2R receptor showed a positive response to a particular API) | + (a “+” to indicate whether a particular T2R receptor showed a positive response to a particular API) | + (a “+” to indicate whether a particular T2R receptor showed a positive response to a particular API) | + (a “+” to indicate whether a particular T2R receptor showed a positive response to a particular API) | + (a “+” to indicate whether a particular T2R receptor showed a positive response to a particular API) | + (a “+” to indicate whether a particular T2R receptor showed a positive response to a particular API) |
